Patent US20260297060A1, “COMPOUNDS FOR THE DEGRADATION OF MUTANT BRAF” (C4 THERAPEUTICS, INC., priority 2023, published 2026)
Like-named read-outs stand apart in the source and are kept apart here.

What was measured:
[1] = system: A375 human melanoma xenografts; assay: Example 8 efficacy study in A375 human melanoma xenografts (tumor volume, T/C, TGI); format: in vivo, BALB/c nude mice; settings: 10 mg/kg, p.o.
Method: (§1) For efficacy study, agents were tested in the A375 human melanoma xenografts model. Compound 8, Compound 26, and Compound 38 were administered to BALB/c nude mice bearing A375 xenografts from day 0 and dosed p.o. twice per day (BID). Compound 8 and Compound 26 were dosed at 10 mg/kg for 21 days. Compound 38 was dosed at 10 mg/kg for 10 days. The known BRAF inhibitor encorafenib was used as a positive control. encorafenib was administered from day 1 and dosed p.o. daily (QD) for 21 days and dosed at 35 mg/kg.
(§2) The A375 tumor cells were maintained in vitro in DMEM medium supplemented with […] and 1% Penicillin-Streptomycin at 37° C. in an atmosphere of 5% CO2 in air. The tumor cells were routinely subcultured twice weekly. The cells growing in an exponential growth phase were harvested and counted for tumor inoculation.
Each mouse was inoculated subcutaneously at the right flank with A375 cells (5×10^6) in 0.2 mL of PBS supplemented with Matrigel (PBS:Matrigel=1:1) for tumor development. Animals were grouped for treatment 16 days after tumor inoculation when the average tumor volume reached 234 mm^3 for efficacy study and 382 mm^3 for PKPD study. The test articles administration and the animal numbers in each group are shown in the above experimental tables.
(§3) Prior to the onset of drug treatment, mice were measured for tumor size in two dimensions using a caliper, and the tumor volume (mm^3) was calculated using formula V=0.5 a×b^2 where a and b are the long and short diameters of the tumor in mm, respectively. Mice were randomized into different treatment groups based on the tumor volume.
(§4) The major endpoint was to see if the tumor growth could be delayed or mice could be cured. The tumor size was then used for calculations of T/C value. The T/C value (in percent) is an indication of antitumor effectiveness; T and C are the mean volumes of the treated and control groups, respectively on specified day.
(§5) TGI was calculated for each group using the formula: TGI (%)=[1−(Ti−T0)/(Ci−C0)]×100; Ti is the average tumor volume of a treatment group on a given day, T0 is the average tumor volume of the treatment group on the day of treatment start, Ci is the average tumor volume of the vehicle control group on the same day with Ti, and C0 is the average tumor volume of the vehicle group on the day of treatment start.

[2] = Example 8 pharmacokinetics assay for efficacy study (plasma, liver); format: in vivo, BALB/c nude mice; settings: mouse, po, 10 mg/kg, p.o.
Method: as §1
The plasma samples were collected at predetermined time points for PK analysis. For non-termination plasma collection, blood samples were collected into the 1.5 mL Eppendorf tubes containing 3 μL of 0.5 M EDTA-K2. For termination plasma collection, the mice were euthanized at predetermined time points post the treatment and the blood samples were collected into the 1.5 mL Eppendorf tubes containing 15 μL of 0.5 M EDTA-K2. And then the anticoagulant blood samples were centrifuged at 2,500 g at 4° C. for 15 minutes. The plasma samples were separated into 2 aliquots. The 1st was used for PK analysis, and the 2nd served as backup. The samples were stored at −80° C. before bioanalysis.
Liver samples were collected at predetermined time points for PK analysis. The left lobe of the liver was dissected out and split into 2 parts. The 1st part was used for PK analysis and the 2nd part served as the backup for the study. The samples were transferred into pre-labeled tubes and quickly froze in liquid nitrogen within 2 minutes after dissection. The samples were stored at −80° C. before bioanalysis.
The harvested plasma and liver samples were processed for pharmacokinetics analysis by LC-MS/MS with a concentration range of 2.0~2000 ng/mL for encorafenib in plasma and liver homogenate, 10.0-10,000 ng/mL for Compound 8 and Compound 38 in plasma and liver homogenate, 20.0~20,000 ng/mL for Compound 26 in plasma and liver homogenate.

[3] = system: A375 human melanoma xenografts; assay: Example 9 efficacy study Part I in A375 human melanoma xenografts (tumor volume, T/C, TGI); format: in vivo, BALB/c nude mice; settings: 10 mg/kg, p.o., BID × 14 days; for Tumor Size on PG-D14: Mean ± SEM; for TGI (Tumor Growth Inhibition): PG-D14; for T/C: PG-D14, treated/control average tumor volume
Method: For efficacy study Part I, agents were tested in the A375 human melanoma xenografts. Compound 218 and Compound 157 were administered to BALB/c nude mice bearing A375 xenografts from day 0 and dosed twice a day (BID) for 14 days. Compound 218 and Compound 157 were dosed at 10 mg/kg via p.o.. Dabrafenib was administered from day 1 daily (QD) for 14 days and dosed at 100 mg/kg via p.o..
as §2
Each mouse was inoculated subcutaneously at the right flank with A375 cells (5×10^6) in 0.2 mL of PBS supplemented with Matrigel (PBS: Matrigel=1:1) for tumor development. Animals were grouped for the treatment when the average tumor volume reached 243 mm^3 for efficacy study part I and 413 mm^3 for the PK and PD study part I on day 15, and 271 mm^3 for efficacy part II and 443 mm^3 for the PK and PD part II on day 18, and 463 mm^3 for the PK and PD study part III on day 21. The test articles administration and the animal numbers in each group are shown in the above experimental tables.
as §3, §4
as §5, with “day, To” for “day, T0”

[4] = system: luciferase-tagged A375 human melanoma CNS tumor; assay: Survival of mice in CNS tumor study (BRAF intracranial model) (Example 12); format: in vivo, human A375 CNS xenograft in mice; settings: versus encorafenib
Method: FIG. 48 is the survival curve for the mice after administration of vehicle, encorafenib, Compound 26, Compound 141 in CNS tumor study. The x-axis is time measured in days and the y-axis is probability of survival. The experiment was conducted as described in Example 12.
FIG. 85 is an extended survival curve for the BRAF intracranial model experiment after administration of vehicle, encorafenib, Compound 26, and Compound 141 in the CNS tumor study. The x-axis is time measured in days and the y-axis is probability of survival. The experiment was conducted as described in Example 12.

For `CCN(C)S(=O)(=O)Nc1ccc(F)c(Oc2ccc3ncn(C4CC5(CCN(C6CCC(c7cc8c(cc7F)c(N7CCC(=O)NC7=O)nn8C)CC6)CC5)C4)c(=O)c3c2)c1C#N` (single isomer, unassigned) [Compound 8, 6-[2-cyano-3-[[ethyl(methyl)sulfamoyl]amino]-6-fluoro-phenoxy]-3-[7-[4-[3-(2,4-dioxohexahydropyrimidin-1-yl)-5-fluoro-1-methyl-indazol-6-yl]cyclohexyl]-7-azaspiro[3.5]nonan-2-yl]-4-oxo-quinazoline], the T/C ([1]; BID × 21 days, PG-D21) was 1.29%, the TGI ([1]; BID × 21 days, PG-D21) was 114.48% and the “Tumor Size on PG-D21 (Mean ± SEM)” value ([1]; BID × 21 days, PG-D21) was 22 ± 3 mm^3. For the same molecule, the “Tumor Volume (mean ± SEM)” value ([1]; BID × 21 days, day 0) was 234 ± 7 mm^3, the “Tumor Volume (mean ± SEM)” value ([1]; BID × 21 days, day 3) was 185 ± 6 mm^3 and the “Tumor Volume (mean ± SEM)” value ([1]; BID × 21 days, day 6) was 105 ± 9 mm^3. The “Tumor Volume (mean ± SEM)” value ([1]; BID × 21 days, day 9) was 57 ± 4 mm^3, the “Tumor Volume (mean ± SEM)” value ([1]; BID × 21 days, day 13) was 32 ± 4 mm^3 and the “Tumor Volume (mean ± SEM)” value ([1]; BID × 21 days, day 17) was 28 ± 3 mm^3. The “Tumor Volume (mean ± SEM)” value ([1]; BID × 21 days, day 21) was 22 ± 3 mm^3, the concentration at 6 h ([2]; liver, BID × 21 days, read-out: Concentration in Liver (mean ± SEM)) was 738 ± 299 ng/g and the concentration at 6 h ([2]; plasma, BID × 21 days, read-out: Concentration in Plasma (mean ± SEM)) was 984 ± 364 ng/mL.

With `CCN(C)S(=O)(=O)Nc1ccc(F)c(Oc2ccc3ncn([C@H]4COC5(CCC(N6CCC(c7cc8c(cc7F)c(N7CCC(=O)NC7=O)nn8C)C(F)(F)C6)CC5)C4)c(=O)c3c2)c1C#N` (single isomer, unassigned) [Compound 38] the T/C ([1]; BID × 10 days, PG-D9) was 4.30%, the TGI ([1]; BID × 10 days, PG-D9) was 134.38% and the “Tumor Size on PG-D9 (mean ± SEM)” value ([1]; BID × 10 days, PG-D9) was 35 ± 3 mm^3. The “Tumor Volume (mean ± SEM)” value ([1]; BID × 10 days, day 0) was 234 ± 7 mm^3, the “Tumor Volume (mean ± SEM)” value ([1]; BID × 10 days, day 3) was 134 ± 7 mm^3 and the “Tumor Volume (mean ± SEM)” value ([1]; BID × 10 days, day 6) was 67 ± 7 mm^3. For the same molecule, the “Tumor Volume (mean ± SEM)” value ([1]; BID × 10 days, day 9) was 35 ± 3^b mm^3, the concentration at 6 h ([2]; liver, BID × 10 days, read-out: Concentration in Liver (mean ± SEM)) was 17200 ± 2570 ng/g and the concentration at 6 h ([2]; plasma, BID × 10 days, read-out: Concentration in Plasma (mean ± SEM)) was 18300 ± 2240 ng/mL.

In the case of `CCN(C)S(=O)(=O)Nc1ccc(F)c(Oc2ccc3ncc(OC4CC5(CCN(C6CCC(c7cc8c(cc7F)c(N7CCC(=O)NC7=O)nn8C)CC6)CC5)C4)nc3c2)c1C#N` (single isomer, unassigned) [Compound 218, 7-[2-cyano-3-[[ethyl(methyl)sulfamoyl]amino]-6-fluoro-phenoxy]-2-[[7-[4-[3-(2,4-dioxohexahydropyrimidin-1-yl)-5-fluoro-1-methyl-indazol-6-yl]cyclohexyl]-7-azaspiro[3.5]nonan-2-yl]oxy]quinoxaline], the “Tumor Volume Trace Over Time” value ([3]; Day 0, Mean ± SEM) is reported as 243 ± 5 mm^3, the “Tumor Volume Trace Over Time” value ([3]; Day 3, Mean ± SEM) is reported as 240 ± 21 mm^3 and the “Tumor Volume Trace Over Time” value ([3]; Day 7, Mean ± SEM) is reported as 114 ± 9 mm^3. The “Tumor Volume Trace Over Time” value ([3]; Day 10, Mean ± SEM) was 80 ± 9 mm^3, the “Tumor Volume Trace Over Time” value ([3]; Day 14, Mean ± SEM) was 60 ± 8 mm^3 and the “Tumor Size on PG-D14” value [3] was 60 ± 8 mm^3. For the same molecule, the “TGI (Tumor Growth Inhibition)” value [3] was 116.68% and the T/C [3] was 4.47%.

For `CCN(C)S(=O)(=O)Nc1ccc(F)c(Oc2ccc3ncn(C4CC5(CCN(C6CC7(C6)CN(c6cc8c(cc6F)c(N6CCC(=O)NC6=O)nn8C)C7)CC5)C4)c(=O)c3c2)c1C#N` (centres unmarked) [Compound 141, 6-[2-cyano-3-[[ethyl(methyl)sulfamoyl]amino]-6-fluoro-phenoxy]-3-[7-[2-[3-(2,4-dioxohexahydropyrimidin-1-yl)-5-fluoro-1-methyl-indazol-6-yl]-2-azaspiro[3.3]heptan-6-yl]-7-azaspiro[3.5]nonan-2-yl]-4-oxo-quinazoline], the “survival of CNS tumor-bearing mice compared with encorafenib” value [4] was “lived significantly longer”.

With `CO[C@H]1CCN(S(=O)(=O)Nc2ccc(F)c(Oc3ccc4ncn([C@H]5COC6(CCN(C7CC8(C7)CN(c7cc9c(cc7F)c(N7CCC(=O)NC7=O)nn9C)C8)CC6)C5)c(=O)c4c3)c2C#N)C1` [Compound 157, (3S)-N-[2-cyano-3-[3-[(3R)-8-[2-[3-(2,4-dioxohexahydropyrimidin-1-yl)-5-fluoro-1-methyl-indazol-6-yl]-2-azaspiro[3.3]heptan-6-yl]-1-oxa-8-azaspiro[4.5]decan-3-yl]-4-oxo-quinazolin-6-yl]oxy-4-fluoro-phenyl]-3-methoxy-pyrrolidine-1-sulfonamide] the “Tumor Volume Trace Over Time” value ([3]; Day 0, Mean ± SEM) was 243 ± 4 mm^3, the “Tumor Volume Trace Over Time” value ([3]; Day 3, Mean ± SEM) was 272 ± 12 mm^3 and the “Tumor Volume Trace Over Time” value ([3]; Day 7, Mean ± SEM) was 191 ± 17 mm^3. The “Tumor Volume Trace Over Time” value ([3]; Day 10, Mean ± SEM) was 166 ± 15 mm^3, the “Tumor Volume Trace Over Time” value ([3]; Day 14, Mean ± SEM) was 183 ± 37 mm^3 and the “Tumor Size on PG-D14” value [3] was 183 ± 37 mm^3. For the same molecule, the “TGI (Tumor Growth Inhibition)” value [3] was 105.48% and the T/C [3] was 13.68%.
